The values that follow come from patent publication US20260355213A1, “TREATMENT OF INFECTIONS CAUSED BY INTRACELLULAR PATHOGENS” (Sheba Impact Ltd., priority 2023, published 2026).

In one assay the test system is caspase 3. In words: Caspase 3 activity in HeLa cells (Multiplex Activity Fluorometric Assay Kit). Type of assay: cell-based, human. The settings on record: HeLa cells infected with S. Typhimurium. The source says: (§1) One of the possible mechanisms that could explain the activity of the compounds in inhibiting infection by different pathogens is inducing programed cell death in infected cells. To examine this experimentally, the present inventors have used Caspase-3, Caspase-8 and Caspase-9 Multiplex Activity Fluorometric Assay Kit (ab219915) to monitor caspase 3, caspase 8 and caspase 9 activity in HeLa cells infected with S. Typhimurium in the presence and absence of the compounds.

Assay [1] concerns Listeria monocytogenes in HeLa cells. In words: Intracellular Listeria monocytogenes infection of HeLa cells (CFU at 6 h p.i.). Type of assay: cell-based. The settings on record: 10 μM. As for the experimental part: 4×10^5 HeLa cells were seeded in a 24-well tissue culture treated plate and incubated for 24 h at 37 °C under 5% CO2 atmosphere. On the next day, cells were incubated for 3 h with fresh DMEM supplemented with the PCM-0094889, PCM-0086166, PCM-0004846, PCM-0103431, PCM-0095494, PCM-0095293, PCM-0001349, and PCM-0095564 compounds at a final concentration of 10 μM. overnight cultures of Listeria monocytogenes that were grown statically at 37 °C were washed and resuspended in PBS. Cell infection at am MOI of 1:50 was conducted by adding 20 μl of Listeria suspension to each well, following by incubation at 37 °C under 5% CO2 atmosphere. 30 min p.i. the cells were washed with PBS and the medium was replaced with fresh medium supplemented with 10 μM of the tested compounds. One h p.i., gentamycin was added to each well at a final concentration of 50 μg/ml. At 6 h p.i., the cells were washed with PBS and lysed with 250 μl DDW at room temperature. The cell lysates were then diluted in PBS and plated on LB plates for CFU count. Intracellular Listeria infection was calculated as the number of intracellular bacteria recovered at 6 h p.i., divided by the infecting inoculum (CFUs). Listeria infection in the presence of the compounds is shown relative to the number of intracellular bacteria that were recovered from cells that were not treated with the compounds. The charts show the mean and standard error of the mean (SEM) of six biological repeats in two independent experiments, biological repeats.

The next assay has as its system caspase 8. Description: Caspase 8 activity in HeLa cells (Multiplex Activity Fluorometric Assay Kit). Type of assay: cell-based, human. The note with it: HeLa cells infected with S. Typhimurium.
Description: as §1

Regarding `CCc1cc2c(cc1CC)CC(NC[C@@H](O)c1ccc(O)c3[nH]c(=O)ccc13)C2` [Compound 8], the “caspase 3 activity in infected cells” value with caspase 3 is given as “significantly higher activity”. The “inhibition of Listeria monocytogenes infection of HeLa cells” value (“inhibition” below) in assay [1] is reported as “able to actively inhibit”. For `CN1CCN(CCOc2cc(OC3CCOCC3)c3c(Nc4c(Cl)ccc5c4OCO5)ncnc3c2)CC1` [Compound 1], in assay [1], the “inhibition” value was “able to actively inhibit”. For `Cc1cc(Nc2ncnc3ccc(-c4ccc(CNCCS(C)(=O)=O)o4)cc23)ccc1Oc1ccn2ncnc2c1` [Compound 5], the “caspase 3 activity in infected cells” value in the assay on caspase 3 is listed as “significantly higher activity”. In addition, in assay [1], the “inhibition” value was “able to actively inhibit”. Further, the “Caspase 8 activity in infected HeLa cells” value in the assay on caspase 8 is given as “significantly higher activity”.

On to `O=C(Nc1ccno1)Nc1ccc(Cl)cc1Cl` [Compound 7], for which the “caspase 3 activity in infected cells” value in the assay with caspase 3 is listed as “significantly higher activity”. In assay [1], the “inhibition” value is given as “able to actively inhibit”. The “Caspase 8 activity in infected HeLa cells” value in the assay with caspase 8 is “significantly higher activity”. Turning to `COc1ccccc1C1(CCNCc2ccc(N(C)C)cc2)CCOC(C)(C)C1` (stereo not shown) [Compound 4], the “caspase 3 activity in infected cells” value in the assay with caspase 3 was “significantly higher activity”. In assay [1], the “inhibition” value is reported as “able to actively inhibit”.

For the compound `CC(C)(C)NCC(O)COc1ccccc1C1CCCC1` (stereo not shown) [Compound 2], in the assay with caspase 3, the “caspase 3 activity in infected cells” value was “significantly higher activity”. On the same count and under the same terms, as for `Cc1nc2c([nH]1)CCN(C(=O)c1ccc(NC(=O)c3ccccc3-c3ccccc3)cc1)c1ccccc1-2` [Compound 6], the entry is “significantly higher activity”.
